Measurements reported in ChEMBL document CHEMBL1201862, “PubChem BioAssay data set” (2004).
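Grown in 96-well plates, cells were treated for 48 hours with each compound at five concentrations. Insufficient inhibition: endpoint recorded as highest concentration tested. GI50: concentration for 50% inhibition of growth.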 Calls of active or inactive are those of the source. Rule as the data show it: active = GI50 up to about 1.1 µM and inactive = higher.

Columns and labels:
Experiment in all cases: growth of human tumour cells (NCI), 48 h
[1] = tested on: OVCAR-4
[2] = tested on: HCT-116
[3] = tested on: OVCAR-3
[4] = tested on: MOLT-4
[5] = tested on: NCI-H522
[6] = tested on: SR
[7] = tested on: SF-295
[8] = tested on: EKVX
[9] = tested on: TK-10
[10] = tested on: NCI-H226
[11] = tested on: ACHN
[12] = tested on: SN12C
[13] = tested on: HOP-62
[14] = tested on: SK-MEL-5
[15] = tested on: A549
[16] = tested on: U-251

Measured: GI50

CC(C)(C)OC(=O)N[C@H]1CC(O)c2ccccc2N(CC(=O)O)C1=O (stereo partly specified)
inactive: [1] > 100 µM | [2] > 100 µM | [3] > 100 µM | [4] > 100 µM | [5] > 100 µM | [6] > 100 µM | [7] > 100 µM | [8] > 100 µM | [9] > 100 µM | [10] > 100 µM | [11] > 100 µM | [12] > 100 µM | [13] > 100 µM | [14] > 100 µM | [15] > 100 µM

C/C(CN1C(=O)c2ccccc2C1=O)=N\NS(=O)(=O)c1ccccc1
inactive: [1] > 100 µM | [2] > 100 µM | [3] > 100 µM | [4] > 100 µM | [5] > 100 µM | [7] > 100 µM | [8] > 100 µM | [9] > 100 µM | [10] > 100 µM | [11] > 100 µM | [12] > 100 µM | [13] > 100 µM | [14] > 100 µM | [16] > 100 µM | [15] > 100 µM

O=c1ccn(/C=C/C(O)C(O)CO)c(=O)[nH]1 (stereo unspecified)
inactive: [1] > 100 µM | [2] > 100 µM | [3] > 100 µM | [4] > 100 µM | [5] > 100 µM | [7] > 100 µM | [8] > 100 µM | [9] > 100 µM | [10] > 100 µM | [11] > 100 µM | [12] > 100 µM | [13] > 100 µM | [14] > 100 µM | [16] > 100 µM | [15] > 100 µM

COc1ccc(/C=N/N=C(\N)NO)c(OC)c1C
inactive: [1] 22.9 µM | [2] 24.5 µM | [3] 7.96 µM | [4] 22.2 µM | [5] 12.5 µM | [6] 28.2 µM | [7] 21.1 µM | [8] 4.56 µM | [10] 15.2 µM | [11] 11.1 µM | [12] 26 µM | [13] 7.19 µM | [16] 45.1 µM | [15] 10.9 µM

O=C1CCC2(c3ccc(F)cc3)Nc3ccccc3N12 (stereo unspecified)
inactive: [1] > 100 µM | [3] > 100 µM | [4] > 100 µM | [5] > 100 µM | [7] > 100 µM | [8] > 100 µM | [9] > 100 µM | [10] > 100 µM | [11] > 100 µM | [12] > 100 µM | [13] > 100 µM | [14] > 100 µM | [16] > 100 µM | [15] > 100 µM

COc1ccc(NC(=O)C2=CC(=O)c3ccc(O)cc3C2=O)c(OC)c1
inactive: [1] > 100 µM | [2] > 100 µM | [3] > 100 µM | [4] > 100 µM | [6] > 100 µM | [7] > 100 µM | [8] > 100 µM | [9] > 100 µM | [10] > 100 µM | [11] > 100 µM | [12] > 100 µM | [13] > 100 µM | [14] > 100 µM | [16] > 100 µM | [15] > 100 µM

Nc1ccc(CCN2CCN(c3cccc(C(F)(F)F)c3)CC2)cc1
inactive: [2] > 100 µM | [3] 91.4 µM | [4] 4.38 µM | [5] 14.3 µM | [6] 58.5 µM | [7] 97.5 µM | [8] 55.5 µM | [9] > 100 µM | [10] 91.4 µM | [11] > 100 µM | [12] > 100 µM | [13] > 100 µM | [14] 55.2 µM | [16] 91.2 µM | [15] > 100 µM

S=C(N/N=C/c1ccccc1)NC1CC(c2ccccc2)Oc2ccccc21 (stereo unspecified)
inactive: [1] 16.9 µM | [2] 72.1 µM | [3] 8.95 µM | [4] > 10 µM | [5] > 100 µM | [6] > 100 µM | [7] 16.1 µM | [8] 18.8 µM | [9] > 10 µM | [10] > 100 µM | [11] > 10 µM | [12] > 100 µM | [14] 11.1 µM | [16] 33.4 µM | [15] 26.8 µM

COc1cccc(NC(=O)CSc2nnc(Cc3ccccc3)o2)c1
inactive: [1] > 100 µM | [2] > 100 µM | [3] > 100 µM | [4] > 100 µM | [5] > 100 µM | [7] > 100 µM | [9] > 100 µM | [10] > 100 µM | [11] 23.3 µM | [12] > 100 µM | [13] > 100 µM | [14] 57 µM | [16] > 100 µM | [15] > 100 µM

CC(=O)NC(CCCNC(=O)N(CCCl)N=O)C(=O)NCc1ccccc1 (stereo unspecified)
inactive: [1] > 100 µM | [2] > 100 µM | [3] > 100 µM | [4] 38.5 µM | [5] > 100 µM | [6] 35.6 µM | [7] 27.9 µM | [8] > 100 µM | [9] > 100 µM | [10] > 100 µM | [11] 38.9 µM | [12] 91.4 µM | [13] 40 µM | [16] 27.6 µM | [15] 69.2 µM

CSc1nc2c(c(O)c(C)c(=O)n2C2OCC(OC(C)=O)C(OC(C)=O)C2OC(C)=O)c(=O)n1C (stereo unspecified)
inactive: [1] > 100 µM | [2] > 100 µM | [3] > 100 µM | [4] > 100 µM | [5] > 100 µM | [6] > 100 µM | [7] > 100 µM | [9] > 100 µM | [10] > 100 µM | [11] > 100 µM | [12] > 100 µM | [13] > 100 µM | [14] > 100 µM | [16] > 100 µM | [15] > 100 µM

CCC1CC(C)=CCN1S(=O)(=O)c1ccc(C)cc1 (stereo unspecified)
inactive: [1] 39 µM | [2] 9.82 µM | [3] 17.4 µM | [4] 28.2 µM | [5] 16.6 µM | [6] 5.66 µM | [7] 32.7 µM | [8] 31.8 µM | [10] 28.2 µM | [11] 37 µM | [12] 9.57 µM | [13] 21.3 µM | [14] 13.9 µM | [15] 21.5 µM

CC12Oc3ccc4ccccc4c3CC1Cc1c(ccc3ccccc13)O2 (stereo unspecified)
inactive: [1] 26.5 µM | [2] > 100 µM | [5] 70 µM | [7] 30 µM | [8] > 100 µM | [9] 46.2 µM | [10] 23 µM | [11] > 100 µM | [13] 53 µM | [16] 50.6 µM | [15] > 100 µM

N=C(N)/N=C(/C=C/c1ccccc1)CC1OC(=O)c2ccccc21 (stereo unspecified)
inactive: [1] > 100 µM | [2] > 100 µM | [4] > 100 µM | [5] > 100 µM | [6] > 100 µM | [7] > 10 µM | [8] > 100 µM | [10] > 100 µM | [11] > 100 µM | [12] > 100 µM | [13] > 100 µM | [14] > 100 µM | [16] > 100 µM | [15] > 100 µM
